Assay results reported in patent US11008290B2, “Halogenated quinoline derivatives as antimicrobial agents” (University of Florida Research Foundation, Incorporated, priority 2015, dated 2021).
In brackets after ≈: the same amount, converted by molar mass. Like-named read-outs stand apart in the source and are kept apart here.

Assays:
[1] = test system: MRSA-2 planktonic cells and biofilms; test: Calgary Biofilm Device (CBD) MBC/MBEC determination; format: cell-based, Staphylococcus aureus; conditions: for MBC: Staphylococcus aureus, MRSA
Experimental: (§1) Biofilm eradication experiments were performed using the Calgary Biofilm Device to determine MBC/MBEC values for various compounds of interest (Innovotech, product code: 19111). The Calgary device (96-well plate with lid containing 96 total pegs to establish biofilms; 1 peg/well) was inoculated with 125 μL of a mid-log phase culture diluted 1,000-fold in tryptic soy broth with 0.5% glucose (TSBG) to establish bacterial biofilms after incubation at 37° C. for 24 hours. The lid of the Calgary device was then removed, washed and transferred to another 96-well plate containing 2-fold serial dilutions of the test compounds (the “challenge plate”). The total volume of media with compound in each well in the challenge plate was 150 μL. The Calgary device was then incubated at 37° C. for 24 hours. The lid was then removed from the challenge plate and MBC/MBEC values were determined using different final assays. […] The MBC values were determined as the concentration giving a lack of visible bacterial growth (e.g., turbidity). For determination of MBEC values, the Calgary device lid (with attached pegs/treated biofilms) was transferred to a new 96-well plate containing 150 μL of fresh TSBG media in each well and incubated for 24 hours at 37° C. to allow viable biofilms to grow and disperse resulting in turbidity after the incubation period. […] In select experiments, treated pegs from the Calgary device were removed from lead biofilm eradicators after final incubation, sonicated for 30 minutes in PBS and plated out to determine biofilm cell killing (e.g., colony forming unit per milliliter, CFU/mL).

[2] = test system: MRSE (ATCC 35984) planktonic cells and biofilms; test: as above; format: cell-based, Staphylococcus epidermidis; conditions: for MBC: Staphylococcus epidermidis, planktonic killing, CBD, first value of cell
Experimental: as §1

[3] = test system: vancomycin-resistant Enterococcus faecium (VRE, ATCC 700221); test: Minimum inhibitory concentration (MIC) susceptibility assay, broth microdilution; format: cell-based; conditions: read-out: VRE MIC
Experimental: (§2) The minimum inhibitory concentration (MIC) for each compound was determined by the broth microdilution method as recommended by the Clinical and Laboratory Standards Institute (CLSI). In a 96-well plate, eleven two-fold serial dilutions of each compound were made in a final volume of 100 μL Luria Broth. Each well was inoculated with ˜10^5 bacterial cells at the initial time of incubation, prepared from a fresh log phase culture (OD600 of 0.5 to 1.0 depending on bacterial strain). […] The concentration range tested for each compound during this study was 0.10 to 100 μM. DMSO served as the vehicle and negative control in each microdilution MIC assay. DMSO was serially diluted with a top concentration of 1% v/v. Bacterial strains used: methicillin-resistant Staphylococcus aureus-2 (MRSA-2; clinical isolate from Shands Hospital in Gainesville, Fla.), methicillin-resistant Staphylococcus epidermidis (MRSE; ATCC 35984), vancomycin-resistant Enterococcus faecium (VRE, ATCC 700221).

[4] = test system: methicillin-resistant Staphylococcus aureus-2 (MRSA-2; clinical isolate); test: as above; format: cell-based
Experimental: as §2

[5] = test system: methicillin-resistant Staphylococcus epidermidis (MRSE; ATCC 35984); test: as above; format: cell-based; conditions: read-out: MRSE MIC
Experimental: as §2

[6] = test system: human red blood cells; test: Hemolysis assay; format: cell-based
Experimental: Freshly drawn human red blood cells (hRBC with ethylenediaminetetraacetic acid (EDTA) as an anticoagulant) were washed with Tris-buffered saline (0.01M Tris-base, 0.155M sodium chloride (NaCl), pH 7.2) and centrifuged for 5 minutes at 3500 rpm. The washing was repeated three times with the buffer. In 96-well plate, the test compounds were added to the buffer. […] The plate was then incubated for 1 hour at 37° C. After incubation, the plate is centrifuged for 5 minutes at 3500 rpm. Then 80 μL of the supernatant were transferred to another 96-well plate and the Optical Density (OD) was read at 405 nm. […] The percent of hemolysis was calculated as (OD405 of the compound-OD405 DMSO)/(OD405 Triton X-OD405 buffer).

[7] = test system: VRE (ATCC 700221) planktonic cells and biofilms; test: Calgary Biofilm Device (CBD) MBC/MBEC determination; format: cell-based, Enterococcus faecium; conditions: Enterococcus
Experimental: as §1

[8] = test system: MRSA-2; test: Mechanistic investigations with metal(II)-cations (MIC assay with 200 μM metal salt); format: cell-based, Staphylococcus aureus; conditions: for Fold Δ (MIC w/Cu^2+) / Fold Δ (MIC w/Fe^2+) / Fold Δ (MIC w/Zn^2+): change in antibacterial activity according to MIC values; for MIC: Staphylococcus aureus
Experimental: as §2

[9] = Table 3, planktonic killing, CBD, first value of MBC/MBEC cell, read-out: MRSA-2 MBC
[10] = Staphylococcus, MRSA, Table 3, at least three independent experiments, read-out: MRSA-2 MIC
[11] = Staphylococcus epidermidis, Table 3
[12] = Table 3, planktonic killing, CBD, first value of cell, footnote c = lowest concentration tested, read-out: VRE MBC
[13] = Staphylococcus, MRSA, read-out: MIC
[14] = MRSA-2, 200 μM ammonium iron (II) sulfate hexahydrate, read-out: MIC w/Fe^2+
[15] = MRSA-2, 200 μM copper (II) sulfate, read-out: MIC w/Cu^2+
[16] = MRSA-2, 200 μM zinc (II) chloride, read-out: MIC w/Zn^2+
[17] = Table 2, planktonic killing, CBD, first value of MBC/MBEC cell, read-out: MRSA-2 Clinical Isolate MBC
[18] = Table 2, read-out: MRSE ATCC 35984 MBC
[19] = Staphylococcus, MRSA, Table 2, 2 to 6 independent experiments, read-out: MRSA-2 MIC
[20] = Staphylococcus epidermidis, Table 2, ATCC 35984
[21] = Staphylococcus epidermidis, 18 h, Table 2, ATCC 35984
[22] = Table 2, planktonic killing, CBD, first value of cell, read-out: VRE ATCC 700221 MBC

In the case of `CCc1ccc2c(Br)cc(Br)c(O)c2n1` [A-HQ-1], the MBC [1, 9] is reported as 93.8 µM (≈ 31 µg/mL), the MBC ([2]; Table 3, read-out: MRSE MBC) is reported as 31.3 µM (≈ 10.4 µg/mL) and the MIC ([3]; Table 3) is reported as 0.78 µM (≈ 0.258 µg/mL). For the same molecule, the MIC [4, 10] was 0.78 µM (≈ 0.258 µg/mL), the MIC [5, 11] was 0.39 µM (≈ 0.129 µg/mL) and the “% Haemolysis at 200 μM” value ([6]; human, 1 h, pH 7.2) was no more than 1%. The MBC [7, 12] was 1.5 µM (≈ 0.497 µg/mL).
`CCCc1ccc2c(I)cc(I)c(O)c2n1` [A-HQ-4] gave an MBC [1, 9] of 188 µM (≈ 82.5 µg/mL), an MBC ([2]; Table 3, read-out: MRSE MBC) of 125 µM (≈ 54.9 µg/mL) and an MIC ([3]; Table 3) of 0.39 µM (≈ 0.171 µg/mL). The MIC [4, 10] was 1.56 µM (≈ 0.685 µg/mL), the MIC [4, 13] was 1.56 µM (≈ 0.685 µg/mL) and the MIC [5, 11] was 1.17 µM (≈ 0.514 µg/mL). For the same molecule, the “% Haemolysis at 200 μM” value ([6]; human, 1 h, pH 7.2) was no more than 1%, the “Fold Δ (MIC w/Cu^2+)” value ([8]; MRSA-2) was “+8 fold” and the “Fold Δ (MIC w/Fe^2+)” value ([8]; MRSA-2) was “+64 fold”. For the same molecule, the “Fold Δ (MIC w/Zn^2+)” value ([8]; MRSA-2) was −8 fold, the MIC [8, 14] was greater than 100 µM and the MIC [8, 15] was 12.5 µM. It also gave an MIC [8, 16] of 0.2 µM and an MBC [7, 12] of 7.8 µM (≈ 3.42 µg/mL).
`Oc1c(Br)cc(Br)c2ccc(CCc3ccc(Br)cc3)nc12` [A-HQ-7] gave an MBC [1, 9] of 375 µM (≈ 182 µg/mL), an MBC ([2]; Table 3, read-out: MRSE MBC) of 250 µM (≈ 122 µg/mL) and an MIC ([3]; Table 3) of 2.35 µM (≈ 1.14 µg/mL). It also gave an MIC [4, 10] of 9.38 µM (≈ 4.56 µg/mL), an MIC [4, 13] of 9.38 µM (≈ 4.56 µg/mL) and an MIC [5, 11] of 1.17 µM (≈ 0.569 µg/mL). For the same molecule, the “% Haemolysis at 200 μM” value ([6]; human, 1 h, pH 7.2) was no more than 1%, the “Fold Δ (MIC w/Cu^2+)” value ([8]; MRSA-2) was “+11 fold” and the “Fold Δ (MIC w/Fe^2+)” value ([8]; MRSA-2) was “+11 fold”. For the same molecule, the “Fold Δ (MIC w/Zn^2+)” value ([8]; MRSA-2) was −8 fold, the MIC [8, 14] was greater than 100 µM and the MIC [8, 15] was greater than 100 µM. For the same molecule, the MIC [8, 16] was 1.17 µM and the MBC [7, 12] was 9.38 µM (≈ 4.56 µg/mL).
In the case of `N#CC(C#N)=NNc1cccc(Cl)c1` [CCCP, carbonyl cyanide m-chlorophenyl hydrazone, reference compound], the MBC [1, 17] is reported as 31.3 µM (≈ 6.4 µg/mL), the MBC [1, 9] is reported as 31.3 µM (≈ 6.4 µg/mL) and the MBC [2, 18] is reported as 31.3 µM (≈ 6.4 µg/mL). The MBC ([2]; Table 3, read-out: MRSE MBC) was 31.3 µM (≈ 6.4 µg/mL), the MIC [4, 19] was 3.13 µM (≈ 0.64 µg/mL) and the MIC ([4]; Table 3, at least three independent experiments, read-out: MRSA-2 MIC) was 3.13 µM (≈ 0.64 µg/mL). The MIC [5, 20] was 6.25 µM (≈ 1.28 µg/mL), the MIC ([5]; Table 3) was 6.25 µM (≈ 1.28 µg/mL) and the “% Haemolysis at 200 μM” value ([6]; Table 2, human red blood cells, 1 hour at 37° C.) was 3.5%. The “% Haemolysis at 200 μM” value ([6]; Table 3, human red blood cells) was 3.5%.
For `O=C(O)CN(CCN(CC(=O)O)CC(=O)O)CC(=O)O` [EDTA, ethylenediaminetetraacetic acid, reference compound], the MBC [1, 9] was 2000 µM (≈ 584 µg/mL), the MBC ([2]; Table 3, read-out: MRSE MBC) was 1000 µM (≈ 292 µg/mL) and the “% Haemolysis at 200 μM” value ([6]; Table 3, human red blood cells) was 3.0%.
`CCCCNCc1ccc2c(Br)cc(Br)c(O)c2n1` [HQ-2] was tested, and the MBC ([1]; read-out: MRSA-2 Clinical Isolate MBC) was 46.9 µM (≈ 18.2 µg/mL), the MIC [3] was 3.13 µM (≈ 1.21 µg/mL) and the MIC ([4]; Staphylococcus, MRSA) was 3.13 µM (≈ 1.21 µg/mL). The MIC ([4]; Staphylococcus, MRSA, read-out: MRSA-2 MIC) was 6.25 µM (≈ 2.43 µg/mL), the MIC ([5]; Staphylococcus epidermidis) was 3.13 µM (≈ 1.21 µg/mL) and the MIC ([8]; MRSA, read-out: MIC w/Cu^2+) was 3.13 µM. The MIC ([8]; MRSA, read-out: MIC w/Fe^2+) was 3.13 µM, the MIC ([8]; MRSA, read-out: MIC w/Zn^2+) was 1.17 µM and the MBC ([7]; read-out: VRE ATCC 700221 MBC) was 15.6 µM (≈ 6.05 µg/mL).
In the case of `Oc1c(Br)cc(Br)c2ccc(CNc3cccc(Cl)c3)nc12` [HQ-4], the MBC [1, 17] is reported as 62.5 µM (≈ 27.7 µg/mL), the “MRSA-2 MBEC” value ([1]; Table 3, biofilm eradication, CBD, second value of MBC/MBEC cell) is reported as “equipotent biofilm eradication activities” and the “MBEC:MBC ratio” value ([2]; MRSE 35984, CBD) is reported as roughly 1. For the same molecule, the MBC [2, 18] was 9.38 µM (≈ 4.15 µg/mL), the MIC ([3]; 18 h, Table 2, ATCC 700221) was 0.39 to 0.78 µM (≈ 0.173 to 0.345 µg/mL) and the MIC ([3]; Table 2, ATCC 700221) was 0.78 µM (≈ 0.345 µg/mL). For the same molecule, the MIC [4, 19] was 1.17 µM (≈ 0.518 µg/mL), the MIC [5, 21] was 0.15 to 0.3 µM (≈ 0.0664 to 0.133 µg/mL) and the MIC [5, 20] was 0.3 µM (≈ 0.133 µg/mL). For the same molecule, the MBC [7, 22] was 1.5 µM (≈ 0.664 µg/mL).
Work on `Oc1c(Br)cc(Br)c2ccc(CNc3cc(Cl)cc(Cl)c3)nc12` [HQ-5] yielded an MBC [1, 17] of 62.5 µM (≈ 29.8 µg/mL), an MBC [2, 18] of 1.5 µM (≈ 0.715 µg/mL) and an MIC ([3]; 18 h, Table 2, ATCC 700221) of 0.39 to 0.78 µM (≈ 0.186 to 0.372 µg/mL). The MIC ([3]; Table 2, ATCC 700221) was 0.39 µM (≈ 0.186 µg/mL), the MIC [4, 19] was 1.56 µM (≈ 0.744 µg/mL) and the MIC [5, 21] was 0.15 to 0.3 µM (≈ 0.0715 to 0.143 µg/mL). The MIC [5, 20] was 0.3 µM (≈ 0.143 µg/mL) and the MBC [7, 22] was 2 µM (≈ 0.954 µg/mL).
